{"source": "paper PMC10218449", "about": "“Evidence for Angiotensin II as a Naturally Existing Suppressor for the Guanylyl Cyclase A Receptor and Cyclic GMP Generation” (International Journal of Molecular Sciences, 2023)", "key": {"[1]": {"assay": "Circulating ANP levels in normal rats after infusion", "format": "in vivo, rat (Sprague-Dawley, male)", "procedure": "(F) Urine output represented by urine volume collected at every 30 min interval during continuous infusion. (G) Urinary sodium excretion during the entire 90 min continuous infusion.\nProtocols in this study have been approved by the Mayo Clinic Institutional Animal Care and Use Committee (IACUC). Rats (Sprague-Dawley, male, 10–11 weeks old) were anesthetized and maintained with 2% isoflurane. Rats were kept on heating pad at 37 °C for the entire experiment to maintain their body temperature. Polyethylene tubes (PE-50) were placed into a jugular vein for saline and peptides infusion and into a carotid artery for BP monitoring and blood sampling. The bladder was cannulated with a PE-90 tube for passive urine collection. […] After the 45 min equilibrium, BP was recorded, and blood was sampled as baseline reference value. […] Urine samples were collected every 30 min period and BP was measured every 15 min using CardioSOFT Pro software (Sonometrics Corporation). […] The volume of urine was measured, and the sodium concentrations were measured with an electrocyte analyzer (Diamond Diagnostics Inc., Holliston, MA, USA). Both plasma and urine samples were then stored at −80 °C until assayed. cGMP was measured in rat plasma and urine samples by a cGMP ELISA (Enzo Life Sciences, Farmingdale, NY, USA) as previously reported."}, "[2]": {"test_system": "HEK293/GC-A^+/AT1^+ cells (human GC-A and AT1)", "assay": "Intracellular cGMP generation in HEK293/GC-A+/AT1+ cells", "format": "cell-based", "settings": "valsartan 1 µM or Go6983 5 µM; ANP 10^−8 M, ANGII 10^−8 M; one-way ANOVA with Dunnett, p < 0.05", "text": "We leveraged HEK293 cells as a cellular tool for mechanistic exploration in the current study. HEK293 cells (passage 4–6) were maintained in Dulbecco’s modified Eagle’s medium (DMEM) supplemented with 10% fetal bovine serum, 100 U/mL penicillin, 100 U/mL streptomycin, and designated antibiotics. HEK293/GC-A^+ and HEK293/GC-B^+ cell lines were generated from HEK293 parental cell transfected with plasmids (OriGene, Rockville, MD, USA) containing either human GC-A or GC-B cDNA sequences. Both GC-A and GC-B plasmid carried sequences for a green florescence protein (GFP) tag and resistance to Neomycin (G418). HEK293/GC-A^+/AT1^+ and HEK293/GC-A^+/AT2^+ cell lines were generated from HEK293/GC-A^+ transfected with lentiviral particle with clones of either human AT1 or AT2 receptor (OriGene, Rockville, MD, USA) using a polybrene transfection agent. Initial transfection was completed with multiplicity of infection (MOI) at 20, 10, and 1. The lentiviral vector carried sequence for resistance to puromycin. Positive HEK293/GC-A^+ and HEK293/GC-B^+ cells were cultured in a regular medium with 250 μg/mL G418; Likewise, positive HEK293/GC-A^+/AT1^+ or HEK293/GC-A^+/AT2^+ cells were cultured in a regular medium with 250 μg/mL G418 (to select for GC-A^+ cells) and 1 μg/mL puromycin (to select for AT1^+ or AT2^+ cells). […]"}, "PKC": {"test_system": "PKC", "assay": "PKC activity (phosphorylated pan-PKC substrates, western blot)", "format": "cell-based, human", "settings": "Go6983 at 5 µM, HEK293/GC-A^+/AT1^+ cells", "text": "(§1) Figure 5 Involvement of PKC Signaling in the Crosstalk between ANGII and GC-A. (A) Protein expression of different human PKC isoforms in the membrane and cytosol fractions of different HEK293 cell lines (with or without treatment of ANGII). GC-A and NaK-ATPase serve as quality control for the separation of membrane and cytosol fractions. GAPDH serves as an additional control as it is primarily expressed in the cytosol fraction compared to membrane fraction. (B) Protein expression of phosphorylated PKC substrates, phosphorylated p38 MAPK, and p38 MAPK in HEK293/GC-A^+/AT1^+ cells treated with different PKC modulators. GAPDH serves as a loading control and 50 µg of total protein (determined using BCA method) was loaded in each lane. PMA, phorbol 12-myristate 13-acetate. […] (D) Hypothetical mechanism underlying the crosstalk between ANGII and GC-A derived from our in vitro studies: (1) ANGII naturally suppresses GC-A mediated cGMP production via AT1 receptor, but not the AT2 receptor nor direct effect on GC-A; (2) PKC is a critical downstream target of AT1 mediating this RAAS/NPS interaction.\n(§2) HEK293 parental cells, HEK293/GC-A^+, HEK293/GC-B^+, HEK293/GC-A^+/AT1^+, and HEK293/GC-A^+/AT2^+ cells were cultured in 60 mm dish to reach 90–100% confluency before being harvested in RIPA buffer (Thermo Fisher Scientific, Waltham, MA, USA) with protease inhibitors. […]"}, "p38 MAPK": {"test_system": "p38 MAPK", "assay": "MAPK phosphorylation (p38 MAPK, western blot)", "format": "cell-based, human", "settings": "Go6983 at 5 µM, HEK293/GC-A^+/AT1^+ cells", "text": "as §1, §2"}}, "data": [{"compound": "CC[C@H](C)[C@H](NC(=O)[C@H](Cc1ccc(O)cc1)NC(=O)[C@@H](NC(=O)[C@H](CCCNC(=N)N)NC(=O)[C@@H](N)CC(=O)O)C(C)C)C(=O)N[C@@H](Cc1cnc[nH]1)C(=O)N1CCC[C@H]1C(=O)N[C@@H](Cc1ccccc1)C(=O)O", "note": "[ANGII, angiotensin II]", "values": [{"measurement": "circulating ANP levels, effect of ANGII co-infusion (in words)", "setting": "[1]; ANGII 50 pmol/kg/min with ANP 300 pmol/kg/min vs ANP alone, 90 min, N = 4 per group", "result": "no influence on circulating ANP levels"}]}, {"compound": "CC[C@H](C)[C@@H]1NC(=O)[C@H](CCCNC(=N)N)NC(=O)[C@H](CC(=O)O)NC(=O)[C@H](CCSC)NC(=O)[C@H](CCCNC(=N)N)NC(=O)CNC(=O)CNC(=O)[C@H](Cc2ccccc2)NC(=O)[C@@H](NC(=O)[C@H](CO)NC(=O)[C@H](CO)NC(=O)[C@H](CCCNC(=N)N)NC(=O)[C@H](CCCNC(=N)N)NC(=O)[C@H](CC(C)C)NC(=O)[C@@H](N)CO)CSSC[C@@H](C(=O)N[C@@H](CC(N)=O)C(=O)N[C@@H](CO)C(=O)N[C@@H](Cc2ccccc2)C(=O)N[C@@H](CCCNC(=N)N)C(=O)N[C@@H](Cc2ccc(O)cc2)C(=O)O)NC(=O)CNC(=O)[C@H](CC(C)C)NC(=O)CNC(=O)[C@H](CO)NC(=O)[C@H](CCC(N)=O)NC(=O)[C@H](C)NC(=O)CNC1=O", "note": "[ANP, atrial natriuretic peptide]", "values": [{"measurement": "circulating ANP level", "setting": "[1]; ANP alone, 300 pmol/kg/min continuous i.v. infusion, plasma at 90 min, mean ± SEM, N = 4, endogenous level 15.3 ± 1.4 pg/mL", "result": "18125.1 ± 1729.3", "unit": "pg/mL"}]}, {"compound": "CCCCC(=O)N(Cc1ccc(-c2ccccc2-c2nnn[nH]2)cc1)[C@H](C(=O)O)C(C)C", "note": "[valsartan]", "values": [{"measurement": "rescue of ANGII suppression of ANP-induced cGMP (in words)", "setting": "[2]", "result": "significantly rescued the suppression effect of ANGII on ANP-induced cGMP"}]}, {"compound": "Go6983", "values": [{"measurement": "rescue of ANGII suppression of ANP-induced cGMP (in words)", "setting": "[2]", "result": "significantly rescued the suppression effect of ANGII on ANP-induced cGMP"}, {"measurement": "PKC activity inhibition (in words)", "setting": "PKC", "result": "effectively inhibited PKC activity"}, {"measurement": "MAPK dependence of PKC inhibition (in words)", "setting": "p38 MAPK", "result": "mitogen-activated protein kinase (MAPK) independent manner"}]}]}
